Measurements published in patent US6818413B2, “Fluorescence-based high throughput screening assays for protein kinases and phosphatases” (Pharmacia and Upjohn Company, priority 1997, dated 2004).

Target: MBL Monoclonal anti-phosphotyrosine antibody (clone 6D12)
Test: Competitive displacement of P-Tyr-F from MBL antibody, fluorescence quenching
Format: binding
Conditions: displacement of P-Tyr-F 1.7 nM from MBL antibody 7.1 nM sites, nM sites (normality), read-out: MBL Monoclonal Kd, nM Φ
Method: FIGS. 5A and 5B: […] MBL antibody, 7.1 nM sites and P-Tyr-F, 1.7 nM were preincubated, and displacement initiated by the addition of a concentrated solution of phosphotyrosine. The increase in emission intensity and decrease in FP were monitored as a function of added phosphoryltyrosine. The data were analyzed as described in FIG. 3. FIGS. 7A, 7B, 7C, and 7D: FIGS. 7A, 7B, 7C, and 7D are graphs showing the competitive displacement of P-Tyr-F from MBL antibody by phosphorylated JAK-2 peptide substrates JAK-2(a) (FIGS. 7A and 7B) and JAK-2(b) (FIGS. 7C and 7D). All procedures were as described in FIG. 5. For both peptides, fixed antibody=7.1 nM sites and P-Tyr-F=1.7 nM. Antibody binding to the fluoresceinated phosphorylamino acids was monitored by adding successive small volumes of the antibody stock solution to a cuvette containing a fixed amount of fluoresceinated phosphorylamino acid in two milliliters of pH 7.4 buffer (25 mM Tris and 25 mM NaCl adjusted to pH 7.4 with HCl). The fluorescence polarization, anisotropy, and the intensity—the sum of vertically and horizontally polarized emissions—were recorded one minute after each addition. The dilution produced by the addition of the antibody necessitated a slight correction for both the concentrations and the intensity readings but not for the polarization since the latter is independent of the fluorophore concentration. […]

Kd: 5.4 ± 0.5 nM
Structure (SMILES): NC(Cc1ccc(OP(=O)(O)O)cc1)C(=O)O (stereo not shown) [Phosphoryltyrosine]
